Experimental data taken from ChEMBL document CHEMBL1821717, “Synthesis and biochemical evaluation of triazole/tetrazole-containing sulfonamides against thrombin and related serine proteases” (Bioorg Med Chem Lett, 2011).

Assays:
[1] = target: T1, Chymase (Homo sapiens) (UniProt P23946); assay: Inhibition of human chymase assessed as residual enzyme activity using chromogenic N-succinyl-Ala-Ala-Pro-Phe p-nitroanilide as substrate at 10 uM pre-incubated for 10 mins by spectrophotometry relative to untreated control; assay type: single protein
T1 sequence (whole entry): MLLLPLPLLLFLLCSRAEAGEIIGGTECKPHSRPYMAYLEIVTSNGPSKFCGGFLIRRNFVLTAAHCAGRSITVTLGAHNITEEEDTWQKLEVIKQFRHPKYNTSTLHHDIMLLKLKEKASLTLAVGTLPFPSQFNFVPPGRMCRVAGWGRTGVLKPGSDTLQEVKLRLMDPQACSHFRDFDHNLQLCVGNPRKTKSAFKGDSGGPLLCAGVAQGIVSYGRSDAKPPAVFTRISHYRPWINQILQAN

[2] = species on record: Homo sapiens; assay: Inhibition of human tryptase assessed as residual enzyme activity using chromogenic H-D-HHT-Ala-Arg-pNA 2AcOH as substrate at 10 uM pre-incubated for 10 mins measured for 30 mins by spectrophotometry relative to untreated control
[3] = Ratio of Ki for bovine pancreatic trypsin to Ki for human thrombin
[4] = Inhibition of bovine pancreatic trypsin using chromogenic N-alpha-bemzoyl-arginine ethyl ester hydrochloride as substrate pre-incubated for 10 mins by spectrophotometry; design: species or system Bos taurus

Row | SMILES | Ratio [1] | Ratio [2] | Ratio Ki [3] | Ki [4] [µM]
1 | O=S(=O)(/C=C/c1cccc(C(F)(F)F)c1)Nc1cccc(OCc2cn(Cc3cc4ccccc4s3)nn2)c1 | 0.99 | 0.97 | 64 | 127
2 | O=[N+]([O-])c1cccc(/C=C/S(=O)(=O)Nc2cccc(OCc3cn(Cc4nc5ccccc5s4)nn3)c2)c1 | 0.95 | 1 | 41 | 187
3 | Nc1cccc(/C=C/S(=O)(=O)Nc2cccc(OCc3cn(Cc4cc5ccccc5s4)nn3)c2)c1 | 0.88 | 0.99 | 41 | 71
4 | O=S(=O)(/C=C/c1cccc(Cl)c1)Nc1cccc(-c2nnn(Cc3cccc(Cl)c3)n2)c1 | 0.97 | 1 | – | –
5 | O=S(=O)(/C=C/c1cccc(Cl)c1)Nc1cccc(OCc2cn(Cc3ccccc3)nn2)c1 | 1 | 0.97 | – | –
6 | Cc1cccc(/C=C/S(=O)(=O)Nc2cccc(-c3nnn(Cc4cccc(Cl)c4)n3)c2)c1 | 0.99 | 1 | – | –
7 | O=[N+]([O-])c1cccc(/C=C/S(=O)(=O)Nc2cccc(-c3nnn(Cc4cccc(Cl)c4)n3)c2)c1 | 0.94 | 1 | – | –
8 | CS(=O)(=O)Nc1cccc(-c2nnn(Cc3cccc(Cl)c3)n2)c1 | 0.95 | 0.97 | – | –
9 | O=S(=O)(/C=C/c1cccc(Cl)c1)Nc1cccc(OCc2cn(Cc3cc4ccccc4[nH]3)nn2)c1 | 1 | 0.99 | – | –
10 | O=S(=O)(/C=C/c1cccc(Cl)c1)Nc1cccc(OCc2cn(Cc3cccc(Cl)c3)nn2)c1 | 0.97 | 0.95 | – | –
11 | O=S(=O)(/C=C/c1cccc(C(F)(F)F)c1)Nc1cccc(-c2nnn(Cc3cccc(Cl)c3)n2)c1 | 0.97 | 1 | – | –
12 | O=[N+]([O-])c1cccc(/C=C/S(=O)(=O)Nc2cccc(OCc3cn(Cc4cc5ccccc5s4)nn3)c2)c1 | 0.89 | 1 | 71 | 122

The remaining lines, values ahead:

Row | Ratio [1] | Ratio [2] | Ratio Ki [3] | Ki [4] [µM] | SMILES
13 | 0.95 | 1 | – | – | O=S(=O)(/C=C/c1cccc(Br)c1)Nc1cccc(-c2nnn(Cc3cccc(Cl)c3)n2)c1
14 | 1 | 0.98 | – | – | O=[N+]([O-])c1cccc(/C=C/S(=O)(=O)Nc2cccc(OCc3cn(Cc4cc5ccccc5[nH]4)nn3)c2)c1
15 | 1 | 0.98 | – | – | O=S(=O)(/C=C/c1cccc(Cl)c1)Nc1cccc(OCc2cn(Cc3nc4ccccc4s3)nn2)c1
16 | – | – | – | 729 | O=S(=O)(/C=C/c1cccc(Cl)c1)Nc1cccc(OCc2cn(Cc3cc4ccccc4s3)nn2)c1
17 | 0.98 | 0.99 | – | – | O=S(=O)(/C=C/c1cccc(Cl)c1)Nc1cccc(OCc2cn(Cc3cccnc3)nn2)c1
18 | 0.95 | 0.95 | 48 | 119 | O=S(=O)(/C=C/c1cccc(F)c1)Nc1cccc(OCc2cn(Cc3cc4ccccc4s3)nn2)c1
19 | 1 | 0.96 | – | – | O=S(=O)(/C=C/c1cccc(C(F)(F)F)c1)Nc1cccc(OCc2cn(Cc3cccnc3)nn2)c1
20 | 0.99 | 1 | – | – | O=S(=O)(/C=C/c1cccc(F)c1)Nc1cccc(OCc2cn(Cc3cccnc3)nn2)c1
21 | 0.96 | 0.98 | – | – | O=S(=O)(/C=C/c1cccc(Cl)c1)Nc1cccc(OCc2cn(Cc3ccsc3Br)nn2)c1
22 | 0.99 | 0.95 | – | – | O=S(=O)(/C=C/c1cccc(Cl)c1)Nc1cccc(OCc2cn(Cc3ccsc3)nn2)c1
23 | 1 | 1 | – | – | COc1cccc(/C=C/S(=O)(=O)Nc2cccc(-c3nnn(Cc4cccc(Cl)c4)n3)c2)c1
24 | 0.91 | 0.97 | – | – | O=S(=O)(/C=C/c1cccc(F)c1)Nc1cccc(-c2nnn(Cc3cccc(Cl)c3)n2)c1
25 | 1 | 1 | – | – | O=[N+]([O-])c1cccc(/C=C/S(=O)(=O)Nc2cccc(OCc3cn(Cc4cccnc4)nn3)c2)c1
